Test results published in patent US9890185B2, “Urea derivatives useful as kinase inhibitors” (Respivert Limited, priority 2013, dated 2018).

Assays:
[1] = system: PBMCs; test: LPS-induced IL-8 release in PBMC cells (assay b); assay type: cell-based, human; settings: Homo sapiens, PBMC; LPS-stimulated PBMCs; read-out: IC50 Values for Inhibition of Cytokine Release, PBMCs IL-8
Outline: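 Human PBMCs from healthy donors, isolated by density gradient, were pretreated with compound for 2 h and then stimulated with 1 ng/mL LPS (E. coli 0111:B4) for 24 h at 37° C, 5% CO2. Supernatant IL-8 and TNFα were measured by sandwich ELISA, and IC50 was taken from the dose-response curve.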

[2] = system: PBMCs; test: IFN gamma release in CD3/CD28 stimulated PBMC cells (assay c); assay type: cell-based; settings: Homo sapiens, read-out: IC50 Values for Inhibition of Cytokine Release, PBMCs IFNγ
Outline: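 Healthy-donor PBMCs (density-gradient isolated) stimulated on plates pre-coated with anti-CD3 (0.3 μg/mL) and anti-CD28 (3 μg/mL), with compound, for 3 days under normal culture conditions. IL-2 and IFN gamma in supernatants measured by sandwich ELISA; IC50 from dose-response curve.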

[3] = biological target: GSK 3α (Homo sapiens (Human), UniProt P49840); test: GSK 3α enzyme inhibition (FRET, Z-LYTE, Method 2); assay type: biochemical; settings: read-out: IC50 Values for Enzyme Inhibition, GSK3α
Chain of GSK 3α (P49840 whole entry): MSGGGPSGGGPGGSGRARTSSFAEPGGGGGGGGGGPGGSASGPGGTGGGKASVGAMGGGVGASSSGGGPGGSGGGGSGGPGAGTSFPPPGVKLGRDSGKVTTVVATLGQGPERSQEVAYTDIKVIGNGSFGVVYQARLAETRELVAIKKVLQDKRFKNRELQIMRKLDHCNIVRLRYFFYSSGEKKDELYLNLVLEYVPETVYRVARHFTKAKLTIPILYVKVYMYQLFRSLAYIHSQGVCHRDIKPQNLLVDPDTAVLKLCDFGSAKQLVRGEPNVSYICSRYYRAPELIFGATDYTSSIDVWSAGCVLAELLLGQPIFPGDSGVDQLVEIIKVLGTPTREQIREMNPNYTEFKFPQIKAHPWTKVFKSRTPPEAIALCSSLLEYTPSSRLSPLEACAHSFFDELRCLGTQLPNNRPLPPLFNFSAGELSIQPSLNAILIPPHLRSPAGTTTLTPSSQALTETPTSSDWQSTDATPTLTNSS
Outline: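 Phosphorylation of a dual-labelled synthetic peptide by human GSK3α is read as a coumarin/fluorescein ratio after protease development. Compound stocks run 4 to 0.004 μg/mL, and ATP stock is 40 μM.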

[4] = biological target: p38 MAPKα isoform (MAPK14) (Homo sapiens (Human), UniProt Q16539); test: p38 MAPKα enzyme inhibition (FRET, Z-LYTE, Method 2); assay type: biochemical
Chain of p38 MAPKα isoform (MAPK14) (Q16539 whole entry, canonical isoform): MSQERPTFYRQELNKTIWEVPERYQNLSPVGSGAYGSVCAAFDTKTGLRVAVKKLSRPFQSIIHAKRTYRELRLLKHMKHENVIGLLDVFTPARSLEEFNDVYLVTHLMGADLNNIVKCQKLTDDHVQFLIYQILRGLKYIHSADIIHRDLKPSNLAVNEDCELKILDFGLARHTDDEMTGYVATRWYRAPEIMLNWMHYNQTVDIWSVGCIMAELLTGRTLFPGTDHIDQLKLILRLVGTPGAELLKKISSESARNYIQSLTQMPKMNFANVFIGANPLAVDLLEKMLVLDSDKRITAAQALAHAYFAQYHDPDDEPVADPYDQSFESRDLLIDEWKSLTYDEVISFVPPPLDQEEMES
Outline: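 Z-LYTE FRET: p38 MAPKα (80 ng/mL for Method 1, 200 ng/mL for Method 2, pre-dilution) preincubated 2 hr RT with compound (4–0.004 μg/mL solutions), activity read via MAPKAP-K2 phosphorylation after 1 hr RT and 1 hr protease development. Coumarin/fluorescein ratio gives phosphorylation; % inhibition versus uninhibited control, IC50 from concentration-response curve.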

[5] = system: d-U937 cells; test: Accumulation of β catenin in d-U937 cells (assay m); assay type: cell-based, human; settings: percentage relative to Reference Compound at 1 μg/mL
Outline: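 PMA-differentiated (100 ng/mL, 48–72 hr) human U937 macrophage-type cells treated with test compound or vehicle for 18 hr. β-catenin measured by in-cell ELISA (anti-β-catenin, HRP secondary, TMB, OD450–655). Signal corrected for cell number by dividing by crystal violet OD595.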

Row | SMILES | IC50 [3] [nM] | IC50 [4] [nM] | IC50 [1] [nM] | IC50 [2] [nM] | % β-catenin induction ([5]; test compound 1 μg/mL) [%] | % β-catenin induction ([5]; test compound 5 μg/mL) [%] | % β-catenin induction ([5]; test compound 10 μg/mL) [%]
1 | COc1c(NC(=O)Nc2ccc(Oc3ccnc(Nc4cc(C)cc(C)c4)c3)c3ccccc23)cc(C(C)(C)C)cc1P(C)(C)=O [Example 28, 1-(5-(tert-Butyl)-3-(dimethylphosphoryl)-2-methoxyphenyl)-3-(4-((2-((3,5-dimethylphenyl)-amino)pyridin-4-yl)oxy)naphthalen-1-yl)urea] | 8260 | 254 | 2.5 | 1.4 | 3.0 | 6.7 | 11.3
2 | COc1cc(Nc2cc(Oc3ccc(NC(=O)Nc4cc(C(C)(C)C)cc(CC(N)=O)c4OC)c4ccccc34)ccn2)cc(OC)c1 [Example 30, 2-(5-(tert-Butyl)-3-(3-(4-((2-((3,5-dimethoxyphenyl)amino)pyridin-4-yl)oxy)naphthalen-1-yl)ureido)-2-methoxyphenyl)acetamide] | > 15400 | 132 | 1.7 | 6.4 | 6.5 | 23.5 | 1.0
3 | COc1cccc(Nc2cc(Oc3ccc(NC(=O)Nc4cc(C(C)(C)C)cc(CC(N)=O)c4OC)c4ccccc34)ccn2)c1 [Example 33, 2-(5-(tert-Butyl)-2-methoxy-3-(3-(4-((2-((3-methoxyphenyl)amino)pyridin-4-yl)oxy)naphthalen-1-yl)ureido)phenyl)acetamide] | 10500 | 109 | 1.7 | 11 | −1.0 | 3.5 | 9.5
4 | COc1cc(Nc2cc(Oc3ccc(NC(=O)Nc4cc(C(C)(C)C)cc(P(C)(C)=O)c4OC)c4ccccc34)ccn2)cc(C(N)=O)c1 [Example 37, 3-((4-((4-(3-(5-(tert-butyl)-3-(dimethylphosphoryl)-2-methoxyphenyl)ureido)-naphthalen-1-yl)oxy)pyridin-2-yl)amino)-5-methoxybenzamide] | 2160 | 62 | 1.7 | 0.7 | 2.0 | 15.5 | 25.5
5 | COc1cc(Nc2cc(Oc3ccc(NC(=O)Nc4cc(C(C)(C)C)cc([S+](C)[O-])c4OC)c4ccccc34)ccn2)cc(OC)c1 (centres unmarked) [Example 40, 1-(5-(tert-Butyl)-2-methoxy-3-(methylsulfinyl)phenyl)-3-(4-((2-((3,5-dimethoxyphenyl)amino)pyridin-4-yl)oxy)naphthalen-1-yl)urea] | > 15300 | 302 | 2.7 | 5.2 | −2.0 | −2.0 | −0.5
6 | COc1cccc(Nc2cc(Oc3ccc(NC(=O)Nc4cc(C(C)(C)C)cc([S+](C)[O-])c4OC)c4ccccc34)ccn2)c1 (centres unmarked) [Example 41, 1-(5-(tert-Butyl)-2-methoxy-3-(methylsulfinyl)phenyl)-3-(4-((2-((3-methoxyphenyl)amino)pyridin-4-yl)oxy)naphthalen-1-yl)urea] | 10200 | 179 | 2.9 | 6.9 | −1.0 | −1.5 | 1.5
7 | COc1cc(Nc2cc(Oc3ccc(NC(=O)Nc4cc(C(C)(C)C)cc(CNC(C)=O)c4OC)c4ccccc34)ccn2)cc(OC)c1 [Example 44, N-(5-(tert-Butyl)-3-(3-(4-((2-((3,5-dimethoxyphenyl)amino)pyridin-4-yl)oxy)naphthalen-1-yl)ureido)-2-methoxybenzyl)acetamide] | > 15100 | 175 | 1.3 | 2.3 | 5.0 | 8.0 | 11.0

More lines, main results first:

Row | IC50 [3] [nM] | IC50 [4] [nM] | SMILES | IC50 [1] [nM] | IC50 [2] [nM] | % β-catenin induction ([5]; test compound 1 μg/mL) [%] | % β-catenin induction ([5]; test compound 5 μg/mL) [%] | % β-catenin induction ([5]; test compound 10 μg/mL) [%]
8 | 7450 | 220 | COc1c(CP(C)(C)=O)cc(C(C)(C)C)cc1NC(=O)Nc1ccc(Oc2ccnc(Nc3ccccc3)c2)c2ccccc12 [Example 24, 1-(5-(tert-Butyl)-3-((dimethylphosphoryl)methyl)-2-methoxyphenyl)-3-(4-((2-(phenylamino)-pyridin-4-yl)oxy)naphthalen-1-yl)urea] | 3.1 | 64 | −3.0 | 13.0 | 16.5
9 | 9620 | 323 | COc1c(C[S+](C)[O-])cc(C(C)(C)C)cc1NC(=O)Nc1ccc(Oc2ccnc(Nc3ccccc3)c2)c2ccccc12 (centres unmarked) [Example 25, 1-(5-(tert-Butyl)-2-methoxy-3-((methylsulfinyl)methyl)phenyl)-3-(4-((2-(phenylamino)pyridin-4-yl)oxy)naphthalen-1-yl)urea] | 5.3 | 29.5 | 1.0 | 8.0 | 17.5
10 | > 11800 | 294 | COc1c(CNC(C)=O)cc(C(C)(C)C)cc1NC(=O)Nc1ccc(Oc2ccnc(Nc3ccccc3)c2)c2ccccc12 [Example 35, N-(5-(tert-Butyl)-2-methoxy-3-(3-(4-((2-(phenylamino)pyridin-4-yl)oxy)naphthalen-1-yl)ureido)benzyl)acetamide] | 3.4 | 10.9 | 5.5 | 16.5 | 23.5
11 | 7700 | 129 | COc1cccc(Nc2cc(Oc3ccc(NC(=O)Nc4cc(C(C)(C)C)cc(CNC(C)=O)c4OC)c4ccccc34)ccn2)c1 [Example 43, N-(5-(tert-Butyl)-2-methoxy-3-(3-(4-((2-((3-methoxyphenyl)amino)pyridin-4-yl)oxy)naphthalen-1-yl)ureido)benzyl)acetamide] | 1.4 | 2.8 | 7.5 | 19.5 | 20.5
